Reference: publication PMC11027154 (Journal of the American Chemical Society, 2024)
Bridge positions count the residues as written; N and C are the ends. Square brackets hold non-standard residues; d marks the D form. Peptide text beside a SMILES is read from it. * marks the point of attachment. X1 = C[C@@H]1NC(=O)[C@H](CC(=O)O)NC(=O)[C@@H](N)CSCc2cc3cc(c2)CSC[C@@H](C(=O)*)NC(=O)[C@H](CSC3)NC(=O)[C@H](CO)NC1=O; FITC = O=C1OC2(c3ccc(O)cc3Oc3cc(O)ccc32)c2ccc(NC(=S)*)cc21; S5 = C=CCCC[C@](C)(N)C(=O)O; βAla = NCCC(=O)O

Legend:
[1] = 25 % human serum diluted in RPMI medium; settings: 37 °C, up to 48 hours (dual 0 – 72 hours in Figure S24)
cyclin A1 with a His tag = target: T1, cyclin A1 with a His tag (Homo sapiens, UniProt P78396); assay: Direct fluorescence polarization (FP) binding to cyclin A1; settings: Figure 5b; FITC-labeled peptide, PBS, 3 h; read-out: FP assay for cyclin A: Kd^app
T1 construct: His; purchased Sino Biological
T1 sequence (P78396 whole entry): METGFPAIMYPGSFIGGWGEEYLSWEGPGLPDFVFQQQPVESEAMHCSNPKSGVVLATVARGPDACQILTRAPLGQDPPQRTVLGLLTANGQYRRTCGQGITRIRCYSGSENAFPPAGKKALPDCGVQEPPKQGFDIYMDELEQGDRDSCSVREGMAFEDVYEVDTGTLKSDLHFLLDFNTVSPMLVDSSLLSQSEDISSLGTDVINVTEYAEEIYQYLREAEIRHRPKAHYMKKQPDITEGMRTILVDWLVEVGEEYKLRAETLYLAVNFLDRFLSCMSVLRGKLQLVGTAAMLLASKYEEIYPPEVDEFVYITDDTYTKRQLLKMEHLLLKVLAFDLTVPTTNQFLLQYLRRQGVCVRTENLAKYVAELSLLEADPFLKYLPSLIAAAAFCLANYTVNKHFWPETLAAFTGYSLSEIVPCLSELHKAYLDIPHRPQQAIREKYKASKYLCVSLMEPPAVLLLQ

circular dichroism = settings: PBS, pH 7.4, 25 °C
[2] = In vitro peptide stability in human serum; assay type: in vitro ADME; settings: 25% human serum, 37 °C; for degradation behaviour in serum: up to 48 h, LC-MS
Experimental: The test compounds were separately incubated with 25% human serum at 37 °C; residual starting materials were monitored as a function of time, and degradation products were characterized using LC-MS (Figure 5c). […] Besides terminal degradation, we also observed ring-opening products by hydrolysis of amide bonds within the hydrocarbon macrocycles in two stapled peptides (Figures S28, S29).

[3] = residual starting material vs time, LC-MS/HPLC, 95% confidence interval in parentheses

Row | Compound | fragment found [1] | helicity (circular dichroism; 5-30 uM) [MRE222] | degradation behaviour in serum [2] | half-life [2, 3] [h] | other results
1 | CDASCCIREISLLKEY | CDASCCIRE (BAMM bicycle with three residues), major |  |  |  | 
2 | CC[C@H](C)[C@@H]1NC(=O)[C@H](C)NC(=O)[C@@](C)(NC(=O)[C@H](CO)NC(=O)[C@H](C)NC(=O)CCNC(=O)CCNC(=O)CCNC(=S)Nc2ccc3c(c2)C(=O)OC32c3ccc(O)cc3Oc3cc(O)ccc32)CCCC=CCCC[C@@](C)(C(=O)N[C@H](C(=O)N[C@@H](CO)C(=O)N[C@@H](CC(C)C)C(=O)N[C@@H](CC(C)C)C(=O)N[C@@H](CCCCN)C(=O)N[C@@H](CCC(=O)O)C(=O)N[C@@H](Cc2ccc(O)cc2)C(N)=O)[C@@H](C)CC)NC(=O)[C@H](CCCNC(=N)N)NC1=O [staple-1-f] ({FITC-βAla-βAla-βAla}-AS[S5]AIR[S5]ISLLKEY-NH2; staple 3-7) |  |  |  |  | Kd (cyclin A1 with a His tag): 1470 ± 210 nM
3 | Ac-ASTAIREISLLKEY-NH2 |  | -3310 |  |  | 
4 | CC[C@H](C)[C@@H]1NC(=O)[C@H](C)NC(=O)[C@@](C)(NC(=O)[C@H](CO)NC(=O)[C@H](C)NC(C)=O)CCCC=CCCC[C@@](C)(C(=O)N[C@H](C(=O)N[C@@H](CO)C(=O)N[C@@H](CC(C)C)C(=O)N[C@@H](CC(C)C)C(=O)N[C@@H](CCCCN)C(=O)N[C@@H](CCC(=O)O)C(=O)N[C@@H](Cc2ccc(O)cc2)C(N)=O)[C@@H](C)CC)NC(=O)[C@H](CCCNC(=N)N)NC1=O [staple-1] (Ac-AS[S5]AIR[S5]ISLLKEY-NH2; staple 3-7) |  |  | overall higher stabilities | 5.7 | helicity (circular dichroism; 17 uM): -13200 MRE222
5 | CC[C@H](C)[C@H](NC(=O)[C@@H]1CSCc2cc3cc(c2)CSC[C@H](N)C(=O)N[C@@H](CC(=O)O)C(=O)N[C@@H](C)C(=O)N[C@@H](CO)C(=O)N[C@@H](CSC3)C(=O)N1)C(=O)N[C@@H](CCCNC(=N)N)C(=O)N[C@@H](CCC(=O)O)C(=O)N[C@H](C(=O)N[C@@H](CO)C(=O)N[C@@H](CC(C)C)C(=O)N[C@@H](CC(C)C)C(=O)N[C@H]1CSCc2cc3cc(c2)CSC[C@H](NC(=O)[C@H](Cc2ccc(O)cc2)NC(=O)[C@H](CCC(=O)O)NC1=O)C(=O)NCC(=O)N[C@H](C(N)=O)CSC3)[C@@H](C)CC [dual] |  |  | oxidation (sulfoxides, M^++16) but not proteolysis was observed |  | t1/2 relative to staple-2 [2]: > 5.6 ×; t1/2 relative to the linear control [2]: > 49 ×; half-life (h) [2, 3]: 39.5 (>19.3) h; helicity (circular dichroism; 13 uM): -11300 MRE222
6 | CC[C@H](C)[C@H](NC(=O)[C@H](C)NC(=O)[C@@H](NC(=O)[C@H](CO)NC(=O)[C@H](C)NC(C)=O)[C@@H](C)O)C(=O)N[C@@H](CCCNC(=N)N)C(=O)N[C@@H](CCC(=O)O)C(=O)N[C@H](C(=O)N[C@@H](CO)C(=O)N[C@@H](CC(C)C)C(=O)N[C@@H](CC(C)C)C(=O)N[C@H]1CSCc2cc3cc(c2)CSC[C@H](NC(=O)[C@H](Cc2ccc(O)cc2)NC(=O)[C@H](CCC(=O)O)NC1=O)C(=O)NCC(=O)N[C@H](C(N)=O)CSC3)[C@@H](C)CC [BSM] |  | -5000 | hydrolyzed more slowly and formed stable byproducts | 2.6 | 
7 | CC[C@H](C)[C@H](NC(=O)[C@@H]1CSCc2cc3cc(c2)CSC[C@H](N)C(=O)N[C@@H](CC(=O)O)C(=O)N[C@@H](C)C(=O)N[C@@H](CO)C(=O)N[C@@H](CSC3)C(=O)N1)C(=O)N[C@@H](CCCNC(=N)N)C(=O)N[C@@H](CCC(=O)O)C(=O)N[C@H](C(=O)N[C@@H](CO)C(=O)N[C@@H](CC(C)C)C(=O)N[C@@H](CC(C)C)C(=O)N[C@@H](CCCCN)C(=O)N[C@@H](CCC(=O)O)C(=O)N[C@@H](Cc1ccc(O)cc1)C(N)=O)[C@@H](C)CC [BAMM] (X1-IREISLLKEY-NH2) |  | -5590 | hydrolyzed more slowly and formed stable byproducts | 2.1 | 
8 | CC[C@H](C)[C@H](NC(=O)[C@H](C)NC(=O)[C@@H](NC(=O)[C@H](CO)NC(=O)[C@H](C)NC(C)=O)[C@@H](C)O)C(=O)N[C@@H](CCCNC(=N)N)C(=O)N[C@@]1(C)CCCC=CCCC[C@@](C)(C(=O)N[C@@H](CCCCN)C(=O)N[C@@H](CCC(=O)O)C(=O)N[C@@H](Cc2ccc(O)cc2)C(N)=O)NC(=O)[C@H](CC(C)C)NC(=O)[C@H](CO)NC(=O)[C@H]([C@@H](C)CC)NC1=O [staple-2] (Ac-ASTAIR[S5]ISL[S5]KEY-NH2; staple 7-11) |  |  | overall higher stabilities | 7 | helicity (circular dichroism; 22 uM): -11100 MRE222

Further lines, with some results ahead:

Row | fragment found [1] | Compound | helicity (circular dichroism; 5-30 uM) [MRE222] | degradation behaviour in serum [2] | half-life [2, 3] [h] | other results
9 | CEYCGC (BSM bicycle), major | Ac-ASTAIREISLLCEYCGC |  |  |  | 
10 | sulfoxide dual; oxidized dual, 8h | CDASCCIREISLLCEYCGC |  |  |  | 
